The numbers were not newly measured in US20060264388A1, “Method for treating liver cancer by intrahepatic administration of nemorubicin” (priority 2003, published 2006), which cites them from elsewhere.

This series deals with metastatic colorectal cancer. As to conditions: after failure of 5-FU leucovorin; cited from earlier work.

Where a name gives a salt, the structure may show the parent alone.

Take `CCc1c2c(nc3ccc(OC(=O)N4CCC(N5CCCCC5)CC4)cc13)-c1cc3c(c(=O)n1C2)COC(=O)[C@]3(O)CC` [Irinotecan hydrochloride trihydrate]: the median survival time result is listed as “approximately 9 months” and the response rate is recorded as 15%.
